Laboratory results published in patent US20230158155A1, “Cell Surface Receptor Binding Compounds and Conjugates” (priority 2020, published 2023).
Where two headings read alike, the source gives them in different places.

Tests used:
[1] = molecular target: T1, recombinant human CI-M6PR protein (Homo sapiens, UniProt P11717); assay: Human CI-M6PR binding assay (ELISA); settings: for EC50: antibody conjugate; for binding affinity to M6PR compared to Compound I-7: conjugates of ligand linkers; for binding affinity for M6PR, rank among the conjugates tested: matuzumab conjugates, ELISA, FIGS. 19A-19F
T1 construct: purchased R&D 6418-GR-050
Method: Nunc black solid bottom MaxiSorp plates were allowed to incubate overnight at 4° C. coated with […] of recombinant human CI-M6PR protein (R&D, 6418-GR-050) in 50 μL PBS. The next day, coating was decanted and plates were washed 3× with PBS. Wells were blocked with 350 μL of 3% BSA-PBS for 1 hour at room temperature. […] 50 μL of diluted conjugates were added to the plate and allowed to incubate at room temperature for 2 hours. After incubation, solutions in plate were decanted and washed with 350 μL of 0.05% PBS-Tween20 three times, drying the plate each wash on a clean paper towel. 50 μL of peroxidase AffiniPure Mouse Anti-Human IgG (Jackson Immuno, 209-035-088) diluted in 3% BSA-PBS to […] was added to the plate and allowed to incubate for 1 hour at room temperature in the dark. After incubation, solutions in plate were decanted and washed with 350 μL of 0.05% PBS-Tween20 3 times, drying the plate each wash on a clean paper towel. […] 50 μL of QuantaBlu solution was added to wells and allowed to incubate for 5-10 minutes at room temperature. After incubation, plates were read on a Perkin Elmer EnVision using photometric 340 and Umbelliferone 460 filter sets for excitation and emission, respectively. Data analysis and non-linear curve-fitting was performed using GraphPad Prism.

Jurkat cells = assay: Conjugate-mediated uptake of IgG2a-Alexa488 into Jurkat cells (flow cytometry); type: cell-based; settings: for uptake of IgG2a-Alexa488 into Jurkat cells: anti-IgG2a conjugates, 1 hour and 24 hours, FIGS. 21-22
Method: The anti-IgG2a conjugates were bound to IgG2a-Alexa488, as follows: equal molar ratios of anti-IgG2a and IgG2a-Alexa488 were added in tissue culture media for 30 minutes at room temperature. The resulting anti-IgG2a:IgG2a antibody-Alexa488 compositions were added to Jurkat cells (100 k cells/50 ul per well, n=2), and Alexa488 fluorescence levels were measured (via Alexa488 measurement) at 1 hour and 24 hours by flow cytometry. Because Alexa488 accumulates in cells, this presents a way to measure total intracellular uptake by cells over time.

Hep G2 cells = assay: Conjugate-mediated uptake of IgG2a into HepG2 cells; type: cell-based, human; settings: one hour incubation, FIG. 25; average loading (816), DAR4 (817), DAR4 (520)
Method: The uptake of antibody conjugates of exemplary M6PR or ASGPR binding compounds was assessed in Hep G2 cells, using a method similar to that described in Example 79.

[2] = Serum pharmacokinetic analysis of rIgG1 (anti-IgG2a) antibody conjugates; type: in vivo; settings: C57B6 mice, intravenous, 10 μg/mouse, 0.5-24 hours, FIGS. 20A-20C
Method: A pharmacokinetic analysis of the rIgG1 (anti-IgG2a) antibody conjugates described in the previous example was performed in mice. In particular, C57B6 mice were intravenously administered each rIgG1 antibody conjugate at 10 μg/mouse (5 mice per group). Blood was collected at 0.5, 1, 2, 6, and 24 hours and serum rIgG1 was analyzed using an ELISA kit (Abcam) according to the manufacturer's instructions. Samples were run across 3 different plates with unconjugated rIgG1 controls (UNLB-anti-IgG2a rIgG1) included on all 3 plates.

[3] = average loading DAR 9, FIG. 23, read-out: EC50 (nM) in M6PR binding assay
[4] = average loading DAR 9.5, FIG. 23, read-out: EC50 (nM) in M6PR binding assay

## C[C@H](NC(=O)CCCn1cc(CCCCNC(=S)Nc2ccc(O[C@H]3O[C@H](CCP(=O)(O)O)[C@@H](O)[C@H](O)[C@@H]3O)cc2)nn1)C(=O)N[C@@H](C)C(=O)N[C@@H](C)C(=O)NCCOCCOCCOCCOCCC(=O)Oc1c(F)c(F)c(F)c(F)c1F [528 (I-51)]
[1]; EC50 (nM) in M6PR binding assay, additional M6PR binding assays, average loading DAR 2
  EC50: 4.44 nM
[1]; EC50 (nM) in M6PR binding assay, additional M6PR binding assays, average loading DAR 8
  EC50: 0.301 nM
[1]; EC50 (nM) in M6PR binding assay, average loading DAR 9.5, FIG. 23
  EC50: 0.199 nM
Jurkat cells; one hour incubation, FIG. 24
  uptake into Jurkat cells, average loading DAR9 versus lower average loading DAR2: greater uptake

## O=C(CCOCCOCCOCCOCCOCCOCCOCCOCCn1cc(CCCCNC(=S)Nc2ccc(O[C@H]3O[C@H](CCP(=O)(O)O)[C@@H](O)[C@H](O)[C@@H]3O)cc2)nn1)Oc1c(F)c(F)c(F)c(F)c1F [526 (I-48)]
[1]; average loading DAR 10, FIG. 23, read-out: EC50 (nM) in M6PR binding assay
  EC50: 0.186 nM

## O=C(CCOCCOCCOCCOCCn1cc(CCCCNC(=S)Nc2ccc(O[C@H]3O[C@H](CCP(=O)(O)O)[C@@H](O)[C@H](O)[C@@H]3O)cc2)nn1)Oc1c(F)c(F)c(F)c(F)c1F [520 (I-7)]
[1]; additional M6PR binding assays, average loading DAR 4, read-out: EC50 (nM) in M6PR binding assay
  EC50: 0.412 nM
[1]; average loading DAR 2, FIG. 23, read-out: EC50 (nM) in M6PR binding assay
  EC50: 2.6 nM
[1]; average loading DAR 4, FIG. 23, read-out: EC50 (nM) in M6PR binding assay
  EC50: 0.221 nM
[1]; [3]
  EC50: 0.217 nM
Hep G2 cells
  uptake into HepG2 cells (cell fluorescence versus conjugate concentration): comparable HepG2 cellular uptake

## O=C(CCOCCOCCOCCOCCn1cc(CCCCNC(=S)Nc2ccc(O[C@H]3O[C@H](CC(C(=O)O)C(=O)O)[C@@H](O)[C@H](O)[C@@H]3O)cc2)nn1)Oc1c(F)c(F)c(F)c(F)c1F [537 (I-66)]
[1]; additional M6PR binding assays, average loading DAR 8, read-out: EC50 (nM) in M6PR binding assay
  EC50: 2.31 nM
[1]; [3]
  EC50: 3.36 nM

## O=C(CCCCCc1cn(CCOCCOCCOCCOCCC(=O)Oc2c(F)c(F)c(F)c(F)c2F)nn1)Nc1ccc(O[C@H]2O[C@H](CCP(=O)(O)O)[C@@H](O)[C@H](O)[C@@H]2O)cc1 [513 (I-39)]
[1]; [3]
  EC50: 0.186 nM

## O=C(CCOCCn1cc(CCCCNC(=S)Nc2ccc(O[C@H]3O[C@H](CCP(=O)(O)O)[C@@H](O)[C@H](O)[C@@H]3O)cc2)nn1)Oc1c(F)c(F)c(F)c(F)c1F [519 (I-47)]
[1]; [4]
  EC50: 0.266 nM

## O=C(CCOCCn1cc(CCO[C@H]2O[C@H](CCP(=O)(O)O)[C@@H](O)[C@H](O)[C@@H]2O)nn1)Oc1c(F)c(F)c(F)c(F)c1F [Compound I-11]
[1]
  binding affinity to M6PR compared to Compound I-7: weaker binding affinity
[2]
  half life (serum rIgG1) compared to Compound I-7 conjugate: longer half life
Jurkat cells
  uptake of IgG2a-Alexa488 into Jurkat cells: sufficiently robust uptake

## O=C(CCCn1cc(CCCCNC(=S)Nc2ccc(O[C@H]3O[C@H](CCP(=O)(O)O)[C@@H](O)[C@H](O)[C@@H]3O)cc2)nn1)N[C@@H](CCCCn1cc(CCCCNC(=S)Nc2ccc(O[C@H]3O[C@H](CCP(=O)(O)O)[C@@H](O)[C@H](O)[C@@H]3O)cc2)nn1)C(=O)N[C@@H](CCCCn1cc(CCCCNC(=S)Nc2ccc(O[C@H]3O[C@H](CCP(=O)(O)O)[C@@H](O)[C@H](O)[C@@H]3O)cc2)nn1)C(=O)N[C@@H](CCCCn1cc(CCCCNC(=S)Nc2ccc(O[C@H]3O[C@H](CCP(=O)(O)O)[C@@H](O)[C@H](O)[C@@H]3O)cc2)nn1)C(=O)NCCOCCOCCOCCOCCC(=O)Oc1c(F)c(F)c(F)c(F)c1F [728 (I-52)]
[1]; additional M6PR binding assays, average loading DAR 6, read-out: EC50 (nM) in M6PR binding assay
  EC50: 0.28 nM

## CC(=O)N[C@H]1[C@H](OCCCCC(=O)NCCCNC(=O)CCOCC(COCCC(=O)NCCCNC(=O)CCCCO[C@@H]2O[C@H](CO)[C@H](O)[C@H](O)[C@H]2NC(C)=O)(COCCC(=O)NCCCNC(=O)CCCCO[C@@H]2O[C@H](CO)[C@H](O)[C@H](O)[C@H]2NC(C)=O)NC(=O)CCCCCCCCCCCN2C(=O)C=CC2=O)O[C@H](CO)[C@H](O)[C@@H]1O [817 (ASGPR compound I-123), N-[1,3-bis(2-{[3-(5-{[(2R,3R,4R,5R,6R)-3-acetamido-4,5-dihydroxy-6-(hydroxymethyl)oxanyl]oxy}pentanamido)propyl]carbamoyl}ethoxy)-2-[(2-{[3-(5-{[(2R,3R,4R,5R,6R)acetamido-4,5-dihydroxy-6-(hydroxymethyl)oxanyl]oxy}pentanamido)propyl]carbamoyl}ethoxy)methyl]propan-2-yl]-12-(2,5-dioxo-2,5-dihydro-1H-pyrrol-1-yl)dodecanamide]
Hep G2 cells
  uptake into HepG2 cells (cell fluorescence versus conjugate concentration): comparable HepG2 cellular uptake

## CC(=O)N[C@H]1[C@H](OCCCCC(=O)NCCCNC(=O)CCOCC(COCCC(=O)NCCCNC(=O)CCCCO[C@@H]2O[C@H](CO)[C@H](O)[C@H](O)[C@H]2NC(C)=O)(COCCC(=O)NCCCNC(=O)CCCCO[C@@H]2O[C@H](CO)[C@H](O)[C@H](O)[C@H]2NC(C)=O)NC(=O)CCCCCCCCCCC(=O)Oc2c(F)c(F)c(F)c(F)c2F)O[C@H](CO)[C@H](O)[C@@H]1O [816 (ASGPR compound I-124)]
Hep G2 cells
  uptake into HepG2 cells (cell fluorescence versus conjugate concentration): comparable HepG2 cellular uptake

## O=C(CCOCCn1cc(COCCOCCOCCNC(=S)Nc2ccc(O[C@H]3O[C@H](CCP(=O)(O)O)[C@@H](O)[C@H](O)[C@@H]3O)cc2)nn1)Oc1c(F)c(F)c(F)c(F)c1F [522 (I-49)]
[1]; average loading DAR 11, FIG. 23, read-out: EC50 (nM) in M6PR binding assay
  EC50: 0.227 nM

## O=C(NCCCCc1cn(CCOCCOCCOCCOCCC(=O)Oc2c(F)c(F)c(F)c(F)c2F)nn1)Nc1ccc(O[C@H]2O[C@H](CCP(=O)(O)O)[C@@H](O)[C@H](O)[C@@H]2O)cc1 [529 (I-38)]
[1]; [4]
  EC50: 0.194 nM

## O=C(CCOCCOCCOCCN(CCOCCOCCOCCn1cc(CCCCNC(=S)Nc2ccc(O[C@H]3O[C@H](CCP(=O)(O)O)[C@@H](O)[C@H](O)[C@@H]3O)cc2)nn1)CCOCCOCCOCCn1cc(CCCCNC(=S)Nc2ccc(O[C@H]3O[C@H](CCP(=O)(O)O)[C@@H](O)[C@H](O)[C@@H]3O)cc2)nn1)NCCN1C(=O)C=CC1=O [706 (I-41)]
[1]; additional M6PR binding assays, maleimide-Cys conjugation, read-out: EC50 (nM) in M6PR binding assay
  EC50: 0.271 nM

## O=C(CCOCCOCCOCCN(CCOCCOCCOCCn1cc(CCC[C@H]2O[C@H](CCP(=O)(O)O)[C@@H](O)[C@H](O)[C@@H]2O)nn1)CCOCCOCCOCCn1cc(CCO[C@H]2O[C@H](CCP(=O)(O)O)[C@@H](O)[C@H](O)[C@@H]2O)nn1)Oc1c(F)c(F)c(F)c(F)c1F [Compound I-12]
[1]
  binding affinity to M6PR compared to Compound I-7: weaker binding affinity
[2]
  half life (serum rIgG1) compared to Compound I-7 conjugate: longer half life
Jurkat cells
  uptake of IgG2a-Alexa488 into Jurkat cells: sufficiently robust uptake

B1: Compound I-7 (d8): "matuzumab conjugates (matuzumab-Compound I-7(d4), matuzumab-Compound I-7(d8) ..." (conjugate)
heavy: QVQLVQSGAEVKKPGASVKVSCKASGYTFTSHWMHWVRQAPGQGLEWIGEFNPSNGRTNYNEKFKSKATMTVDTSTNTAYMELSSLRSEDTAVYYCASRDYDYAGRYFDYWGQGTLVTVSSASTKGPSVFPLAPSSKSTSGGTAALGCLVKDYFPEPVTVSWNSGALTSGVHTFPAVLQSSGLYSLSSVVTVPSSSLGTQTYICNVNHKPSNTKVDKKVEPKS
light: DIQMTQSPSSLSASVGDRVTITCSASSSVTYMYWYQQKPGKAPKLLIYDTSNLASGVPSRFSGSGSGTDYTFTISSLQPEDIATYYCQQWSSHIFTFGQGTKVEIKRTVAAPSVFIFPPSDEQLKSGTASVVCLLNNFYPREAKVQWKVDNALQSGNSQESVTEQDSKDSTYSLSSTLTLSKADYEKHKVYACEVTHQGLSSPVTKSFNRGE
modifications: left off: a dimerising Fc or GST
[1]
  binding affinity for M6PR, rank among the conjugates tested: highest

B2: Compound I-11 (d4): "matuzumab conjugates (... matuzumab-Compound I-11(d4) ..." (conjugate)
heavy: B1 heavy
light: B1 light
modifications: left off: a dimerising Fc or GST
[1]
  binding affinity for M6PR, rank among the conjugates tested: lowest
